Source: patent US20250179028A1, “ACRYLAMIDE COMPOUNDS” (NRG THERAPEUTICS LTD, priority 2022, published 2025)
Marks after values point to notes of the source that are not given here.

Columns and labels:
mPTP = mPTP activity assay in isolated rat brain mitochondria; format: biochemical; details: isolated rat brain mitochondria
Experimental: mPTP activity was measured in brain mitochondria freshly isolated from female Sprague Dawley (250 to 300 gram) rats. Anaesthetised rats were perfused in-situ with ˜40 ml cold Dulbecco's Phosphate Buffered Saline (DPBS), then brains dissected and transferred into 30 ml Isolation Buffer (225 mM mannitol, 75 mM sucrose, 1 mM EGTA, adjusted to pH 7.4 with 1 M NaOH). The brain was minced using tweezers and a scalpel into ˜5 mm pieces then transferred into a 50 ml Potterton Dounce homogenization tube on ice containing 10 ml ice-cold isolation buffer (as above with addition of Complete Protease inhibitor; 1 tablet per 50 ml buffer).
Homogenisation was carried out using a […] pestle at 1800 rpm. The slurry was centrifuged at 2000 g for 10 min at 4° C., then the supernatant centrifuged at 12,000 g for 9 min. The pellet was resuspended with a dounce homogeniser in isolation buffer as above but with the addition of 0.02% digitonin, centrifuged at 12,000 g for 11 min and finally resuspended in 5 ml modified isolation buffer (as above but with EGTA reduced to 0.1 mM).
Test compounds were prepared in 384 well polypropylene assay plates as described above for the liver mitochondria assay. A stock mitochondria/Fluo5N assay solution was prepared in 5.6 ml assay buffer (120 mM mannitol, 40 mM MOPS, 5 mM KH2PO4, 60 mM KCl, 10 mM pyruvate, 2 mM malate, 2 mM MgCl2, 20 μM ADP, 1.26 μM oligomycin A, adjusted to pH 7.4) supplemented with Fluo5N pentapotassium salt (2 μM) and 1 ml mitochondria suspension, then transferred (15 μl) into the assay plate containing test compounds and incubated for 10 min at RT. Assay plates were then transferred to a FLIPR Tetra plate reader (Molecular Devices). Dye fluorescence was then measured every 3 sec for a total of 10 min. After 12 sec, a 2.5 μl bolus of Ca2+ (75 μM) was added from a source plate containing 675 μM CaCl2) in FLIPR assay buffer. IC50 values for test compounds were calculated using the fluorescence value collected at the 10 min timepoint with % inhibition calculated using the DMSO control and cyclosporin A values at […].

CYP2D6 = CYP2D6 (Homo sapiens (Human), UniProt P10635); assay: Cytochrome P450 CYP2D6 inhibition in human liver microsomes; format: in vitro ADME; details: for inhibition at 20 min, 1 µM: probe dextromethorphan 2 µM (dextrorphan formation), 1 uM test compound, negative values = no effective inhibition; for inhibition at 20 min, 1 µM / IC50: human liver microsomes, average value from two experiments
Summary of the method: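 Human liver microsomes (0.2 mg/mL) with 2 μM dextromethorphan in 100 mM PBS, test compound at 1 μM or 0.1-30 μM, 15 min preincubation then NADPH-started reaction for 20 min at 37° C, in duplicate. Dextrorphan formation by UPLC-MS/MS; IC50 from % decrease versus uninhibited control.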

[1] = Microsomal clearance assay; format: in vitro ADME; details: rat liver microsomes; average value from two experiments
Experimental: The microsomal stability of test compounds was evaluated using rat liver microsomes (BiolVT) with and without the cofactors nicotinamide adenine dinucleotide phosphate (NADPH) and undine-diphosphate-glucuronic acid (UDPGA). Reactions were performed in a final volume of 250 μl pre-warmed (37° C.) 100 mM phosphate buffer containing 5 mM MgCl2, 0.025 mg/ml alamethicin, and 0.5 mg/ml rat liver microsomes. NADPH and UDPGA were included at 1 mM and 2 mM respectively, where appropriate. Reactions were started with the addition of 1 μM (final concentration) test compound. Verapamil was used as the positive control. Solutions were incubated in a water bath at 37° C. and aliquots collected at 0.5, 5, 15, 30 and 60 min. Reactions were stopped by the addition of 5 volumes of cold acetonitrile with internal standards (200 nM caffeine and 100 nM tolbutamide). Samples were centrifuged at 3220 g for 40 min. An aliquot of supernatant was diluted 1:1 In ultra-pure H2O, then used for LC-MS/MS analysis. Peak areas were determined from extracted ion chromatograms. The slope value, k, was determined by linear regression of the natural logarithm of the remaining percentage of the parent drug vs. incubation time curve. The in vitro half-life (in vitro t½) was determined from the slope value: in vitro t½=0.693/k. Conversion of the in vitro t½ (min) into the in vitro intrinsic clearance (in vitro CLint, in μL/min/mg protein) was done using the following equation (mean of duplicate determinations): […]

Chain of CYP2D6 (P10635 whole entry): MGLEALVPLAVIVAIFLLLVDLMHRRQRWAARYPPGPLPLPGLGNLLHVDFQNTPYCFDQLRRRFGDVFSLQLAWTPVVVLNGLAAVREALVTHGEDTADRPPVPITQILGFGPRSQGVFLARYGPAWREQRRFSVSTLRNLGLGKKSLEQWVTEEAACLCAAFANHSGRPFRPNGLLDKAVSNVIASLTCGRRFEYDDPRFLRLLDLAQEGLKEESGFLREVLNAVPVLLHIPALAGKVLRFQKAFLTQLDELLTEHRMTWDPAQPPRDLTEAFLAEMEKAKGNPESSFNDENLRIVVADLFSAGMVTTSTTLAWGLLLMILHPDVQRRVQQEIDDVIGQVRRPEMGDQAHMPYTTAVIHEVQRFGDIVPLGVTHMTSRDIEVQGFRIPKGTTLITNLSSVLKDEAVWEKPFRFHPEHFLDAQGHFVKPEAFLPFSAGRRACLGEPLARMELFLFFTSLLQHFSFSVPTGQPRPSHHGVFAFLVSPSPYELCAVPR

| Compound | mPTP Rat brain pIC50 (mPTP) | inhibition at 20 min, 1 µM (CYP2D6) [%] | microsomal CLint at 1 µM [1] [µL/min/mg] | IC50 (CYP2D6) [µM] | mPTP Rat brain pIC50 (mPTP; average value from a larger number of experiments) | inhibition of CYP2D6 (in words) (CYP2D6) |
| --- | --- | --- | --- | --- | --- | --- |
| CO[C@H]1Cc2ccccc2[C@@H]1NC(=O)/C=C/c1ccc2c(C)n[nH]c2c1 [Example 54, (E)-N-((1S,2S)-2-methoxy-2,3-dihydro-1H-inden-1-yl)-3-(3-methyl-1H-indazol-6-yl)acrylamide] | 7.7 | 8.2 | – | – | – | – |
| Cc1c(F)cccc1NC(=O)/C=C/c1ccc2c(c1)NC(=O)C2C (centres unmarked) [Example 8, (E)-N-(3-fluoro-2-methylphenyl)-3-(3-methyl-2-oxoindolin-6-yl)acrylamide] | – | 3.13 | 13 | – | – | – |
| Cc1c(F)cccc1NC(=O)/C=C/c1ccc2c(c1F)NC(=O)C2 [Example 5, (E)-N-(3-fluoro-2-methylphenyl)-3-(7-fluoro-2-oxoindolin-6-yl)acrylamide] | – | -2.57 | 17 | – | – | – |
| Cc1n[nH]c2cc(/C=C/C(=O)NC3CCc4ccccc43)ccc12 (centres unmarked) [Example 25, (E)-N-(2,3-dihydro-1H-inden-1-yl)-3-(3-methyl-1H-indazol-6-yl)acrylamide] | – | 2.05 | 52.9 | 13.8 | – | – |
| Cc1c(F)cccc1NC(=O)/C(F)=C/c1ccc2c(c1)NC(=O)C2 [Example 47, (Z)-2-fluoro-N-(3-fluoro-2-methylphenyl)-3-(2-oxoindolin-6-yl)acrylamide] | – | 1.91 | 36.8 | – | – | – |
| Cc1c(F)cccc1NC(=O)/C=C/c1ccc2c(c1)NC(=O)C2 [Example 10, (E)-N-(3-fluoro-2-methylphenyl)-3-(2-oxoindolin-6-yl)acrylamide] | 6.5 | 3.66 | 13 | > 30 | – | – |
| Cc1ccc(F)c(C)c1NC(=O)/C=C/c1ccc2c(c1)[nH]c(=O)n2C [Example 30, (E)-N-(3-fluoro-2,6-dimethylphenyl)-3-(1-methyl-2-oxo-2,3-dihydro-1H-benzo[d]imidazol-5-yl)acrylamide] | 7.6 | -3.33 | – | – | – | – |
| CO[C@H]1Cc2ccccc2[C@@H]1NC(=O)/C=C/c1ccc2c(F)n[nH]c2c1 [Example 73, (E)-3-(3-fluoro-1H-indazol-6-yl)-N-((1S,2S)-2-methoxy-2,3-dihydro-1H-Inden-1-yl)acrylamide] | 7.7 | 34.6 | – | – | – | – |
| Cc1c(F)cccc1NC(=O)/C=C/c1ccc2c(c1)[nH]c(=O)n2C1CC1 [Example 23, (E)-3-(1-cyclopropyl-2-oxo-2,3-dihydro-1H-benzo[d]imidazol-5-yl)-N-(3-fluoro-2-methylphenyl)acrylamide] | – | 0.7 | 9.8 | – | – | – |
| Cc1c(F)cccc1NC(=O)/C=C/c1ccc2cn[nH]c2c1 [Comparative Example 1, (E)-N-(2-methyl-3-fluorophenyl)-3-(1H-indazol-6-yl)acrylamide, reference compound] | 7.6 | 86.5 | 43 | 0.074 | 7.5*** | highly potent inhibitor of CYP2D6 |
| Cc1c(F)cccc1NC(=O)/C=C/c1ccc2oc(=O)[nH]c2c1 [Example 6, (E)-N-(3-fluoro-2-methylphenyl)-3-(2-oxo-2,3-dihydrobenzo[d]oxazol-5-yl)acrylamide] | – | 5.08 | 17 | 19 | – | – |
| CCn1c(=O)[nH]c2cc(/C=C/C(=O)Nc3cccc(F)c3C)ccc21 [Example 22, (E)-3-(1-ethyl-2-oxo-2,3-dihydro-1H-benzo[d]imidazol-5-yl)-N-(3-fluoro-2-methylphenyl)acrylamide] | – | 2.05 | 9.85 | – | – | – |
| Cc1cccc(C)c1NC(=O)/C=C/c1ccc2c(c1)NC(=O)C2 [Example 19, (E)-N-(2,6-dimethylphenyl)-3-(2-oxoindolin-6-yl)acrylamide] | – | -3.04 | 20 | – | – | – |
| Cc1c(F)cccc1NC(=O)/C=C/c1ccc2c(c1)[nH]c(=O)n2C [Example 7, (E)-N-(3-fluoro-2-methylphenyl)-3-(1-methyl-2-oxo-2,3-dihydro-1H-benzo[d]imidazol-5-yl)acrylamide] | 6.9 | 2.27 | 6.5 | > 30 | – | – |
